Patent publication US20260207623A1, “USE OF ESTETROL IN HEPATICALLY IMPAIRED PATIENTS” (ESTETRA SRL, priority 2022, published 2026)

Test system: post-menopausal women
Experiment: Example 2 dose-finding study: weekly severity of moderate to severe VMS
Format: in vivo, human
Conditions: for LS adjusted mean change from baseline in weekly severity of moderate to severe VMS: week 12, ANCOVA
Excerpt: A severity scoring system to define the different severity categories of VMS is commonly used in the technical field: • a score of mild (1) for a sensation of heat without sweating; • a score of moderate (2) for a sensation of heat with sweating/the subject is able to continue activity; and • a score of severe (3) for a sensation of heat with sweating/which causes cessation of activity.
In addition, a severity score of zero is attributed to the patients who have experienced a 100% VMS relief during a given week. From these score records, the VMS severity at baseline is typically calculated by taking into account only moderate and severe VMS, such that the total number of moderate VMS during the 7 days of the baseline week is multiplied by 2 and added to the total number of severe VMS during the 7 days of the baseline week multiplied by 3. This total is then divided by the total number of moderate and severe VMS during the baseline week.
The severity at weeks 4 and 12 is calculated using the following formula for each of these weeks: • the number of mild VMS during 7 days multiplied by 1; • the number of moderate VMS during 7 days multiplied by 2; • the number of severe VMS during 7 days multiplied by 3; and adding the 3 resulting numbers together before dividing this total by the total number of mild, moderate and severe VMS during the 7 days of the week.
All treatments (Estetrol, hereinafter E4 as monohydrate, [2.5 mg, 5 mg, 10 mg, 15 mg] capsule) were administered once daily (QD) per os for at least 12 consecutive weeks until the last biological assessments (Day 91 maximum) had been performed.
In order to better analyse the data recorded in this study, treatment groups have been compared using an ANCOVA (analysis of covariance) with respect to the change in severity of moderate to severe VMS from baseline to mild, moderate and severe VMS at week 4 and week 12 for each active treatment versus placebo. For women who experienced 100% VMS relief at week 4 and/or week 12, a value of zero was attributed. The ANCOVA model includes treatment (“trt1”) as a fixed effect and baseline (“base”) as a covariate.

C[C@]12CC[C@@H]3c4ccc(O)cc4CC[C@H]3[C@@H]1[C@@H](O)[C@@H](O)[C@@H]2O [E4 monohydrate, estetrol monohydrate]
Mean change from baseline in weekly severity of moderate to severe VMS (2.5 mg QD, week 0): 0
Mean relative change (% from baseline) in weekly severity of moderate to severe VMS (2.5 mg QD, week 0): 0%
Mean relative change (% from baseline) in weekly severity of moderate to severe VMS (2.5 mg QD, week 1): −7%
Mean relative change (% from baseline) in weekly severity of moderate to severe VMS (2.5 mg QD, week 2): −9%
Mean relative change (% from baseline) in weekly severity of moderate to severe VMS (2.5 mg QD, week 3): −14%
Mean relative change (% from baseline) in weekly severity of moderate to severe VMS (2.5 mg QD, week 4): −15%
Mean relative change (% from baseline) in weekly severity of moderate to severe VMS (2.5 mg QD, week 5): −17%
Mean relative change (% from baseline) in weekly severity of moderate to severe VMS (2.5 mg QD, week 6): −22%
Mean relative change (% from baseline) in weekly severity of moderate to severe VMS (2.5 mg QD, week 7): −20%
Mean relative change (% from baseline) in weekly severity of moderate to severe VMS (2.5 mg QD, week 8): −24%
Mean relative change (% from baseline) in weekly severity of moderate to severe VMS (2.5 mg QD, week 9): −24%
Mean relative change (% from baseline) in weekly severity of moderate to severe VMS (2.5 mg QD, week 10): −26%
Mean relative change (% from baseline) in weekly severity of moderate to severe VMS (2.5 mg QD, week 11): −25%
Mean relative change (% from baseline) in weekly severity of moderate to severe VMS (2.5 mg QD, week 12): −28%
Mean change from baseline in weekly severity of moderate to severe VMS (5 mg QD, week 0): 0
Mean relative change (% from baseline) in weekly severity of moderate to severe VMS (5 mg QD, week 0): 0%
Mean relative change (% from baseline) in weekly severity of moderate to severe VMS (5 mg QD, week 1): −4%
Mean relative change (% from baseline) in weekly severity of moderate to severe VMS (5 mg QD, week 2): −5%
Mean relative change (% from baseline) in weekly severity of moderate to severe VMS (5 mg QD, week 3): −7%
Mean relative change (% from baseline) in weekly severity of moderate to severe VMS (5 mg QD, week 4): −10%
Mean relative change (% from baseline) in weekly severity of moderate to severe VMS (5 mg QD, week 5): −7%
Mean relative change (% from baseline) in weekly severity of moderate to severe VMS (5 mg QD, week 6): −14%
Mean relative change (% from baseline) in weekly severity of moderate to severe VMS (5 mg QD, week 7): −12%
Mean relative change (% from baseline) in weekly severity of moderate to severe VMS (5 mg QD, week 8): −14%
Mean relative change (% from baseline) in weekly severity of moderate to severe VMS (5 mg QD, week 9): −14%
Mean relative change (% from baseline) in weekly severity of moderate to severe VMS (5 mg QD, week 10): −15%
Mean relative change (% from baseline) in weekly severity of moderate to severe VMS (5 mg QD, week 11): −18%
Mean relative change (% from baseline) in weekly severity of moderate to severe VMS (5 mg QD, week 12): −17%
Mean change from baseline in weekly severity of moderate to severe VMS (10 mg QD, week 0): 0
Mean relative change (% from baseline) in weekly severity of moderate to severe VMS (10 mg QD, week 0): 0%
Mean relative change (% from baseline) in weekly severity of moderate to severe VMS (10 mg QD, week 1): −8%
Mean relative change (% from baseline) in weekly severity of moderate to severe VMS (10 mg QD, week 2): −13%
Mean relative change (% from baseline) in weekly severity of moderate to severe VMS (10 mg QD, week 3): −17%
Mean relative change (% from baseline) in weekly severity of moderate to severe VMS (10 mg QD, week 5): −21%
Mean relative change (% from baseline) in weekly severity of moderate to severe VMS (10 mg QD, week 6): −26%
Mean relative change (% from baseline) in weekly severity of moderate to severe VMS (10 mg QD, week 7): −27%
Mean relative change (% from baseline) in weekly severity of moderate to severe VMS (10 mg QD, week 8): −28%
Mean relative change (% from baseline) in weekly severity of moderate to severe VMS (10 mg QD, week 9): −28%
Mean relative change (% from baseline) in weekly severity of moderate to severe VMS (10 mg QD, week 10): −29%
Mean relative change (% from baseline) in weekly severity of moderate to severe VMS (10 mg QD, week 11): −25%
Mean relative change (% from baseline) in weekly severity of moderate to severe VMS (10 mg QD, week 12): −28%
LS adjusted mean change from baseline in weekly severity of moderate to severe VMS (10 mg QD): −0.6934
Mean change from baseline in weekly severity of moderate to severe VMS (15 mg QD, week 0): 0
Mean relative change (% from baseline) in weekly severity of moderate to severe VMS (15 mg QD, week 0): 0%
Mean relative change (% from baseline) in weekly severity of moderate to severe VMS (15 mg QD, week 1): −3%
Mean relative change (% from baseline) in weekly severity of moderate to severe VMS (15 mg QD, week 2): −12%
Mean relative change (% from baseline) in weekly severity of moderate to severe VMS (15 mg QD, week 3): −20%
Mean relative change (% from baseline) in weekly severity of moderate to severe VMS (15 mg QD, week 4): −24%
Mean relative change (% from baseline) in weekly severity of moderate to severe VMS (15 mg QD, week 5): −31%
Mean relative change (% from baseline) in weekly severity of moderate to severe VMS (15 mg QD, week 6): −30%
Mean relative change (% from baseline) in weekly severity of moderate to severe VMS (15 mg QD, week 7): −34%
Mean relative change (% from baseline) in weekly severity of moderate to severe VMS (15 mg QD, week 8): −37%
Mean relative change (% from baseline) in weekly severity of moderate to severe VMS (15 mg QD, week 9): −38%
Mean relative change (% from baseline) in weekly severity of moderate to severe VMS (15 mg QD, week 10): −40%
Mean relative change (% from baseline) in weekly severity of moderate to severe VMS (15 mg QD, week 11): −42%
Mean relative change (% from baseline) in weekly severity of moderate to severe VMS (15 mg QD, week 12): −44%
LS adjusted mean change from baseline in weekly severity of moderate to severe VMS (15 mg QD): −1.042
